The values below come from article PMC9858543, “Design, synthesis and evaluation of 2, 6, 8-substituted Imidazopyridine derivatives as potent PI3Kα inhibitors” (Journal of Enzyme Inhibition and Medicinal Chemistry, 2023).

For the first assay, the target named is T1, PI3Kα (Homo sapiens, UniProt P42336).
T1 construct: purchased Invitrogen
T1 sequence (P42336 whole entry): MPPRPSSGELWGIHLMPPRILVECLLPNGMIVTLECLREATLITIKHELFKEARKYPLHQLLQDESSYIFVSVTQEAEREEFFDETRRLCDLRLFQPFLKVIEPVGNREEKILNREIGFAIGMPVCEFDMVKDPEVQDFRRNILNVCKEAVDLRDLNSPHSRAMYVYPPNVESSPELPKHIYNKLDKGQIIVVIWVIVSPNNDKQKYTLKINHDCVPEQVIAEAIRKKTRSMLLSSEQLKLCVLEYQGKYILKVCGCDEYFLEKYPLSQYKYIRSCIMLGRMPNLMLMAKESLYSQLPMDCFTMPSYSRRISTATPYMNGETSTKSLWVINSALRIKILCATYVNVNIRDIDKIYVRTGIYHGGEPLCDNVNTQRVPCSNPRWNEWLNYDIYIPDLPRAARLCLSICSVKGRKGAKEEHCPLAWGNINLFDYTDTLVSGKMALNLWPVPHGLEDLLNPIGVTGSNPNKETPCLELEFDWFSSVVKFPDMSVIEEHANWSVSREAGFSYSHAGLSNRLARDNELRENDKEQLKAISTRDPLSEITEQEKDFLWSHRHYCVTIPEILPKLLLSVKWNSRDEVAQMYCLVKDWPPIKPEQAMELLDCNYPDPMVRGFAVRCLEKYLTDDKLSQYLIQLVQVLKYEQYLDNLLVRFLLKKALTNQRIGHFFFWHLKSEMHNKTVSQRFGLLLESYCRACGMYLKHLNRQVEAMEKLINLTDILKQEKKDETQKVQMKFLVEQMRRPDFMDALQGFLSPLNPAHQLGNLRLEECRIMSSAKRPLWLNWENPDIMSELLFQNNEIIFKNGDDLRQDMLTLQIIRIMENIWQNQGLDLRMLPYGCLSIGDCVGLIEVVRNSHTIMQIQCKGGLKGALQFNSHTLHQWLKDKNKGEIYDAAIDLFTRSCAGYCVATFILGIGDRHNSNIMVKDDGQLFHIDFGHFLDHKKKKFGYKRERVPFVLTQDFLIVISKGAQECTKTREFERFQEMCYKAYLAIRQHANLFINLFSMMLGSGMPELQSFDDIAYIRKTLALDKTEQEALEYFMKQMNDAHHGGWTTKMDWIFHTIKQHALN
T1 sequence (P27986 whole entry partner): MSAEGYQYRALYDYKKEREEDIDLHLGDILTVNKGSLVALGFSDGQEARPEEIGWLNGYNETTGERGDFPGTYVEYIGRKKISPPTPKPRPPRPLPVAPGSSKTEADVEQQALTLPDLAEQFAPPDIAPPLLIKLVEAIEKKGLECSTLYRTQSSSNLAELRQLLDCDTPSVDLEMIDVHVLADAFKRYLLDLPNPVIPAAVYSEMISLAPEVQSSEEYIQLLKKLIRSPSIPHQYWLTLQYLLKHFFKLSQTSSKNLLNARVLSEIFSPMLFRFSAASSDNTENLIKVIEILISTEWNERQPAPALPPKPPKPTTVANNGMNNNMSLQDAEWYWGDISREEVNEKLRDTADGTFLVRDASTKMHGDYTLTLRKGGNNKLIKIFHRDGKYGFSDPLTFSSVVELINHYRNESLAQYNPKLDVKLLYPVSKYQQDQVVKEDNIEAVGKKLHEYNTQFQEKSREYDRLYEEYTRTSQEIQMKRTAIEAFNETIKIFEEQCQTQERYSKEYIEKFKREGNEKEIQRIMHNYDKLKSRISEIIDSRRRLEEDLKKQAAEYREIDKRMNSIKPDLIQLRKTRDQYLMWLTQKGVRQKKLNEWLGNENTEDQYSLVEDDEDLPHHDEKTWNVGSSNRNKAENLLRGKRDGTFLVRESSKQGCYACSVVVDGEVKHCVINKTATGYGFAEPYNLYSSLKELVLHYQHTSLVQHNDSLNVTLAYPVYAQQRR
Put plainly: In vitro PI3Kα enzymatic assay (ADP-Glo / Kinase-Glo, ATP 25 μM). Format: biochemical. The note with it: PI3Kα, compound 10 μM, ATP 25 μM; mean ± SD of three determinations. As to the method:
To screen the inhibitory activity of the target compounds against PI3Kα, the Kinase-Glo™ assay with ATP at 25 μM was utilised with PIK-75 as positive control. We chose to explore the SARs at three positions on the Imidazo[1,2-a]pyridine core. To start with, a set of 8-position modifications were prepared while keeping the morpholinyl amide substituent on 2-position fixed, since it allowed quick structure − activity profiling via coupling reactions of bromide with aryl borates or boronic acids. […] We then turned our attention back to the phenyl substituents.
Briefly, the compound, PI3K enzyme (PI3Kα from Invitrogen), the PIP2 (Life Technologies) substrate, and ATP (25 μM, Sigma) were diluted in kinase buffer to the indicated concentrations. The assay plate was covered and incubated at room temperature for 1 h. Then, the Kinase-Glo reagent (Promega) was added to the PI3Kα plate to stop the reaction, mixed briefly with centrifuge, shaken slowly on the shaker and then equilibrate for 120 min. Finally, add Kinase detection reagent to each well, shake 1 min, equilibrate for 30 min before reading on a plate reader for luminescence. The data were collected on Envision and presented in Excel. IC50 values were calculated from the inhibition curves.
Consider “1-Cyclohexyl-3–(3-(6-methyl-2–(4-methylpiperidine-1-carbonyl)Imidazo[1,2-a]pyridin-8-yl)phenyl)urea [Compound 33]”, for which the “% Inhibition at 10 μM” value worked out at 44.5 ± 1.2%.

Staying with this assay, now noted: PI3Kα, compound 10 μM, ATP 25 μM; mean ± SD of three determinations; read-out: % Inhibition at 10 μM.
In the case of `Cc1cc(-c2ccc(F)cc2)c2nc(C(=O)N3CCOCC3)cn2c1` [Compound 15, (8–(4-Fluorophenyl)-6-methylImidazo[1,2-a]pyridine-2-yl)(morpholino)methanone], the inhibition at 10 µM came out at 31.9 ± 2.9%.
Take `Cc1cc(-c2cccc(F)c2)c2nc(C(=O)N3CCOCC3)cn2c1` [Compound 16, (8–(3-Fluorophenyl)-6-methylImidazo[1,2-a]pyridin-2-yl)(morpholino)methanone]: the inhibition at 10 µM came out at 38.2 ± 3.6%.
Still for that read-out and setting: under `Cc1cc(-c2ccccc2F)c2nc(C(=O)N3CCOCC3)cn2c1` [Compound 17, (8–(2-Fluorophenyl)-6-methylImidazo[1,2-a]pyridin-2-yl)(morpholino)methanone] stands 14.1 ± 2.7%; under `Cc1cc(-c2ccc(NC(=O)c3cccc(F)c3)cc2)c2nc(C(=O)N3CCOCC3)cn2c1` [Compound 18, 3-Fluoro-N-(4–(6-methyl-2-(morpholine-4-carbonyl)Imidazo[1,2-a]pyridin-8-yl)phenyl)benzamide], 47.6 ± 3.9%.
For the molecule `Cc1cc(-c2cccnc2)c2nc(C(=O)N3CCOCC3)cn2c1` [Compound 20, (6-Methyl-8-(pyridin-3-yl)Imidazo[1,2-a]pyridin-2-yl)(morpholino)methanone], the inhibition at 10 µM came out at 30.2 ± 2.1%.
Still for that read-out and setting: the result for `COc1ccc(-c2cc(C)cn3cc(C(=O)N4CCOCC4)nc23)cn1` [Compound 21, (8–(6-Methoxypyridin-3-yl)-6-methylImidazo[1,2-a]pyridin-2-yl)(morpholino)methanone] reads 39.9 ± 3%; that for `Cc1cc(-c2ccc(F)cc2)c2nc(C(=O)N3CCCC3)cn2c1` [Compound 22, (8–(4-Fluorophenyl)-6-methylImidazo[1,2-a]pyridin-2-yl)(pyrrolidin-1-yl)methanone], 33.3 ± 4.2%.
Still for that read-out and setting: the result for `Cc1cc(-c2cccc(F)c2)c2nc(C(=O)N3CCCC3)cn2c1` [Compound 23, (8–(3-Fluorophenyl)-6-methylImidazo[1,2-a]pyridin-2-yl)(pyrrolidin-1-yl)methanone] reads 43.9 ± 1.8%; that for `Cc1cc(-c2cccnc2)c2nc(C(=O)N3CCCC3)cn2c1` [Compound 24, (6-Methyl-8-(pyridin-3-yl)Imidazo[1,2-a]pyridin-2-yl)(pyrrolidin-1-yl)methanone], 29.6 ± 2.1%; that for `COc1ccc(-c2cc(C)cn3cc(C(=O)N4CCCC4)nc23)cn1` [Compound 25, (8–(6-Methoxypyridin-3-yl)-6-methylImidazo[1,2-a]pyridin-2-yl)(pyrrolidin-1-yl)methanone], 44.3 ± 1.5%.
For `Cc1cc(-c2ccc(NC(=O)c3cccc(F)c3)cc2)c2nc(C(=O)N3CCCC3)cn2c1` [Compound 26, 3-Fluoro-N-(4–(6-methyl-2-(pyrrolidine-1-carbonyl)Imidazo[1,2-a]pyridin-8-yl)phenyl)benzamide], the inhibition at 10 µM is 57.9 ± 4.6%.
On the same count and under the same terms, under `CCN(CC)S(=O)(=O)c1cccc(-c2cc(C)cn3cc(C(=O)N4CCCC4)nc23)c1` [Compound 28, N,N-Diethyl-3–(6-methyl-2-(pyrrolidine-1-carbonyl)Imidazo[1,2-a]pyridin-8-yl)benzenesulfonamide] stands 66.1 ± 4.4%.
Consider `Cc1cc(-c2cccc(F)c2)c2nc(C(=O)N3CCC(C)CC3)cn2c1` [Compound 29, (8–(3-Fluorophenyl)-6-methylImidazo[1,2-a]pyridin-2-yl)(4-methylpiperidin-1-yl)methanone], for which the inhibition at 10 µM came to 30.4 ± 3.1%.
Consider `Cc1cc(-c2ccncc2)c2nc(C(=O)N3CCC(C)CC3)cn2c1` [Compound 30, (6-Methyl-8-(pyridin-4-yl)Imidazo[1,2-a]pyridin-2-yl)(4-methylpiperidin-1-yl)methanone], for which the inhibition at 10 µM amounted to 9.3 ± 1.7%.
On the same count and under the same terms, under `Cc1cc(-c2cccnc2)c2nc(C(=O)N3CCC(C)CC3)cn2c1` [Compound 31, (6-Methyl-8-(pyridin-3-yl)Imidazo[1,2-a]pyridin-2-yl)(4-methylpiperidin-1-yl)methanone] stands 28.5 ± 1.6%; under `COc1ncc(-c2cc(C)cn3cc(C(=O)N4CCCC4)nc23)cc1NS(=O)(=O)c1ccccc1` [Compound 34, N-(2-methoxy-5–(6-methyl-2-(pyrrolidine-1-carbonyl)Imidazo[1,2-a]pyridin-8-yl)pyridin-3-yl)benzenesulfonamide], 49.8 ± 1.6%; under `COc1ncc(-c2cc(C)cn3cc(C(=O)N4CCOCC4)nc23)cc1NS(=O)(=O)c1ccc(F)cc1F` [Compound 37, 2,4-Difluoro-N-(2-methoxy-5–(6-methyl-2-(morpholine-4-carbonyl)Imidazo[1,2-a]pyridin-8-yl)pyridin-3-yl)benzenesulfonamide], 67.5 ± 0.3%.
On the same count and under the same terms, under `COc1ncc(-c2cc(C)cn3cc(C(=O)NCCN4CCOCC4)nc23)cc1NS(=O)(=O)c1ccc(F)cc1F` [Compound 38, 8–(5-((2,4-Difluorophenyl)sulfonamido)-6-methoxypyridin-3-yl)-6-methyl-N-(2-morpholinoethyl)Imidazo[1,2-a]pyridine-2-carboxamide] stands 81.6 ± 2.8%; under `COc1ncc(-c2cc(C)cn3cc(C(=O)NCCCN4CCOCC4)nc23)cc1NS(=O)(=O)c1ccc(F)cc1F` [Compound 39, 8–(5-((2,4-Difluorophenyl)sulfonamido)-6-methoxypyridin-3-yl)-6-methyl-N-(3-morpholinopropyl)Imidazo[1,2-a]pyridine-2-carboxamide], 70.2 ± 3.6%.
The same measure, in the same setting: under `COc1ncc(-c2cc(C)cn3cc(C(=O)NCCCN4CCOCC4)nc23)cc1NS(=O)(=O)c1ccc(F)cc1` [Compound 41, 8–(5-((4-Fluorophenyl)sulfonamido)-6-methoxypyridin-3-yl)-6-methyl-N-(3-morpholinopropyl)Imidazo[1,2-a]pyridine-2-carboxamide] stands 75.7 ± 2.9%; under `COc1ncc(-c2cc(C)cn3cc(C(=O)N4CCOCC4)nc23)cc1NS(=O)(=O)c1ccc(F)cc1` [Compound 42, 4-Fluoro-N-(2-methoxy-5–(6-methyl-2-(morpholine-4-carbonyl)Imidazo[1,2-a]pyridin-8-yl)pyridin-3-yl)benzenesulfonamide], 69.2 ± 6.4%; under `COc1ncc(-c2cc(C)cn3cc(C(=O)N4CCC(C)CC4)nc23)cc1NS(=O)(=O)c1ccc(F)cc1` [Compound 43, 4-Fluoro-N-(2-methoxy-5–(6-methyl-2–(4-methylpiperidine-1-carbonyl)Imidazo[1,2-a]pyridin-8-yl)pyridin-3-yl)benzenesulfonamide], 62.8 ± 4.6%.
On to `COc1ncc(-c2cc(C)cn3cc(C(=O)N4CCN(C)CC4)nc23)cc1NS(=O)(=O)c1ccc(F)cc1` [Compound 44, 4-Fluoro-N-(2-methoxy-5–(6-methyl-2–(4-methylpiperazine-1-carbonyl)Imidazo[1,2-a]pyridin-8-yl)pyridin-3-yl)benzenesulfonamide], for which the inhibition at 10 µM turned out to be 53.4 ± 5.1%.
Still for that read-out and setting: the result for `COc1ncc(-c2cc(Cl)cn3cc(C(=O)NCCCN4CCOCC4)nc23)cc1NS(=O)(=O)c1ccc(F)cc1F` [Compound 45, 6-Chloro-8–(5-((2,4-difluorophenyl)sulfonamido)-6-methoxypyridin-3-yl)-N-(3-morpholinopropyl)Imidazo[1,2-a]pyridine-2-carboxamide] reads 59.8 ± 3.5%.
